Results from patent US4059704A, “Tetrazole coumarin derivatives” (Beecham Group Limited, priority 1973, dated 1977).

Assays:
[1] = test system: Rat PCA response; assay: Rat Passive Cutaneous Anaphylaxis (PCA) test; assay type: in vivo, Wistar rats
Procedure: All of the coumarins prepared in the preceeding Examples were submitted for biological testing. The test system was the Rat Passive Cutaneous Anaphylaxis (PCA) test described below in (ii)
i. Serum containing heat labile homocytotropic antibody was raised in rats by a method similar to that used by Mota. (I. Mota Immunology 1964, 7,681).
Male Wistar rats of 250-300 g, were injected intraperitoneally with 0.5 of Bordatella pertussis vaccine (containing 4 × 10^10 dead organism per ml.) and subcutaneously with 0.5 ml of an emulsion of adjuvant. Rats were bled by cardiac puncture on day 18, the blood was pooled and separated and serum stored at -20° and thawed only once before use.
ii. The P.C.A. test was similar to that described by Ovary and Bier (A. Ovary and O. E. Bier, Proc.Soc.Exp. Biol.Med. 1952, 81, 584) and Goose and Blair (J. Goose and AMJ. N. Blair, Immunology 1969, 16, 769).
0.1 ml of each of six twofold serial dilutions of the serum in 0.9% saline were injected intradermally into separate sites on the shaved dorsal surface of 250-350 g. Wistar rats. 72 hours later the animals were challenged by i.v. injection of 0.3 ml of 1% ovalbumin mixed with 0.1 ml of a 5% solution of pontamine sky blue dye in isotonic saline buffered with pH. 7.2 Sorenson buffer (P.B.S.). The rats were killed after 20 minutes and the diameter of the blue wheals at the antibody injection sites were measured. The starting dilution of the serum was adjusted so that there was no response, after challenge, at the site of injection of the highest dilution and a maximum response at the lowest dilution. Typically, six twofold serial dilutions of the serum from 1/4 to 1/128 were used.
Compounds were tested for their ability to reduce the diameter of the wheals at the injection sites of dilutions of antibody which on all the controls have less than maximum response. Amounts of the compounds were administered to rats each amount to a test group of six animals at a specified time prior to intravenous challenge with ovalbumin. The diameters of the blue wheals which developed on the tests group of animals were compared with those on a control group of six animals treated in the same way as the test group, but which had not received the compound under test.
% Inhibition of P.C.A. = 100 (1 - a/b)
a = The mean of the sum of the diameters of the wheals produced in the test group of animals at those antibody sites where all the control group of animals gave less than maximum response.
b = The mean of the sum of diameters of the wheals produced in the control group of animals at those antibody sites where all the animals gave less than maximum response.
The preferred method of administration was a solution of the test compound dissolved in pH 7.2 buffer and neutralised with sodium bicarbonate.

[2] = anti-allergic activity (general statement, no test detailed); settings: in our hands
[3] = authors' conclusion in J.Chem.Soc. Perkin Trans I, 779, 1972; cited from earlier work
[4] = 1 h, time 60 mins prior to challenge
[5] = 0.5 h, time 30 mins prior to challenge
[6] = 10 min, time 10 mins prior to challenge

| SMILES | inhibition in vivo at 25 mg/kg [1, 4] [%] | inhibition in vivo at 100 mg/kg [1, 4] [%] | inhibition in vivo at 25 mg/kg [1, 5] [%] | inhibition in vivo at 100 mg/kg [1, 5] [%] | further results |
| --- | --- | --- | --- | --- | --- |
| Cc1c(-c2nnn[nH]2)c(=O)oc2ccccc12 [Example 1, 4-Methyl-3-(tetrazol-5-yl) coumarin, reference compound] | 38 | 48 |  |  | antiallergic activity [2]: substantial antiallergic activity; anti-allergic activity [3]: no anti-allergic activity |
| Cc1c(-c2nnn[nH]2)c(=O)oc2ccc(Br)cc12 [Example 2, 6-Bromo-4-methyl-3-(tetrazol-5-yl) coumarin] | 36 | 44 |  |  |  |
| Cc1c(-c2nnn[nH]2)c(=O)oc2ccc(Cl)cc12 [Example 3, 6-Chloro-4-methyl-3-(tetrazol-5-yl) coumarin] | 28 | 35 |  |  |  |
| Cc1cc2oc(=O)c(-c3nnn[nH]3)c(C)c2cc1C [Example 4, 3-(Tetrazol-5-yl)-4,6,7-trimethyl coumarin] |  |  | 47 | 70 |  |
| Cc1ccc2oc(=O)c(-c3nnn[nH]3)c(C)c2c1 [Example 5, 4,6-Dimethyl-3-(tetrazol-5-yl) coumarin] | 32 | 19 |  |  |  |
| Cc1ccc2c(C)c(-c3nnn[nH]3)c(=O)oc2c1 [Example 6, 4,7-Dimethyl-3-(tetrazol-5-yl) coumarin] |  |  | 42 | 45 |  |
| Cc1c(-c2nnn[nH]2)c(=O)oc2c(Cl)cccc12 [Example 7, 8-Chloro-4-methyl-3-(tetrazol-5-yl) coumarin] |  |  | 19 | 26 |  |
| Cc1c(-c2nnn[nH]2)c(=O)oc2c1ccc1ccccc12 [Example 8, 7,8-Benzo-4-methyl-3-(tetrazol-5-yl) coumarin] | 20 | 30 |  |  |  |
| CCc1c(-c2nnn[nH]2)c(=O)oc2ccccc12 [Example 9, 4-Ethyl-3-(tetrazol-5-yl) coumarin] |  |  | 19 | 70 |  |
| CCCc1c(-c2nnn[nH]2)c(=O)oc2ccccc12 [Example 10, 4-n-Propyl-3-(tetrazol-5-yl) coumarin] |  |  | -12 | 45 |  |
| O=c1oc2ccccc2c(-c2ccccc2)c1-c1nnn[nH]1 [Example 11, 4-Phenyl-3-(tetrazol-5-yl) coumarin] |  |  | -10 | 14 |  |
| CCc1cc2oc(=O)c(-c3nnn[nH]3)c(C)c2cc1CC [Example 12, 6,7-Diethyl-4-methyl-3(tetrazol-5-yl) coumarin] | 10 | 42 |  |  | inhibition in vivo at 25 mg/kg [1, 6]: -6%; inhibition in vivo at 100 mg/kg [1, 6]: -1% |
